This note sets out measurements from US20140135310A1, “SULPHONAMIDE DERIVATIVES OF ALICYCLIC AMINES FOR THE TREATMENT OF CENTRAL NERVOUS SYSTEM DISEASES” (Adamed Sp. z o.o., priority 2011, published 2014).

What is called inhibition is the drop in the measured response relative to a control, in per cent.

One test has as its target T1, 5-HT2A receptor (Homo sapiens, UniProt P28223).
T1 construct: purchased PerkinElmer
Put plainly: Radioligand binding assay, serotoninergic 5-HT2A receptors. The note with it: binding assay result in %, Table 5a. Put shortly: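 Radioligand competition binding with scintillation counting; nonspecific binding defined by excess unlabelled ligand. Data as percent inhibition of control specific binding. IC50 by Hill-equation fit of competition curves; Ki by Cheng-Prusoff, with radioligand Kd from Scatchard plot.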

The target in test [1] is dopaminergic receptors D2 (Homo sapiens, UniProt P14416). Briefly: Radioligand binding assay, dopaminergic D2 receptors. The note with it: binding assay, test compound 1×10^−6 M. The essentials:
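Total binding is counted by scintillation and non-specific binding subtracted using an excess of unlabelled ligand. IC50 comes from a Hill-equation fit with slope factor; Ki follows Cheng–Prusoff.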

For the next test, the target named is T2, 5-HT6 receptor (Homo sapiens, UniProt P50406).
T2 construct: purchased PerkinElmer
T2 sequence (P50406 whole entry): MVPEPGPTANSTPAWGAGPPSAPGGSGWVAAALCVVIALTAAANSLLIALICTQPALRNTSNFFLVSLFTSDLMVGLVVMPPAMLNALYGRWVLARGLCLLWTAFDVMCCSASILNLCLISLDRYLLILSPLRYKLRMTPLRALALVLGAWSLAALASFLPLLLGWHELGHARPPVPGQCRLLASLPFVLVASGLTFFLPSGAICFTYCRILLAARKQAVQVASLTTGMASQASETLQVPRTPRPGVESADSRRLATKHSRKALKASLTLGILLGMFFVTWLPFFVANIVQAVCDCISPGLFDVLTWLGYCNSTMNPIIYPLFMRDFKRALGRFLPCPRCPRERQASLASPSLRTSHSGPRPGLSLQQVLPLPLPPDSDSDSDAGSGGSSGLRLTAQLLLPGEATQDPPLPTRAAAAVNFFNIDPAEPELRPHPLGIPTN
Put plainly: Radioligand binding assay, serotoninergic 5-HT6 receptors. The conditions noted are these: binding assay result in %, Table 5a. Put shortly:
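Values are Ki from Cheng–Prusoff, taking IC50 from Hill nonlinear regression of competition curves and KD from a Scatchard plot. Specific binding was total minus binding with excess unlabelled ligand. Radioligand displacement was detected by scintillation counting, and data were also reported as percent of control specific binding.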

Another test addresses T3, 5-HT7 receptor (Homo sapiens, UniProt P34969).
T3 construct: purchased PerkinElmer
Briefly: Radioligand binding assay, serotoninergic 5-HT7 receptors. The conditions noted are these: binding assay result in %, Table 5a. Put shortly: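 Competition binding at human 5-HT7 receptors with a radioligand, detected by scintillation counting; non-specific binding was defined with excess unlabelled ligand. IC50 came from Hill-equation fits of competition curves, and Ki from Cheng–Prusoff using radioligand concentration and Scatchard-derived KD.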

The target in test [2] is dopaminergic receptors D3 (Homo sapiens, UniProt P35462). Put plainly: Radioligand binding assay, dopaminergic D3 receptors. The conditions noted are these: test compound 1×10^−6 M. The essentials: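 Competition radioligand binding at human D2, D3 and D4.4 receptors, detected by scintillation counting; nonspecific binding defined with excess unlabelled ligand. Results as percent inhibition of control specific binding; IC50 by Hill-equation nonlinear regression; Ki via Cheng-Prusoff, with radioligand KD from Scatchard plot.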
Sequence of dopaminergic receptors D3 (P35462 whole entry): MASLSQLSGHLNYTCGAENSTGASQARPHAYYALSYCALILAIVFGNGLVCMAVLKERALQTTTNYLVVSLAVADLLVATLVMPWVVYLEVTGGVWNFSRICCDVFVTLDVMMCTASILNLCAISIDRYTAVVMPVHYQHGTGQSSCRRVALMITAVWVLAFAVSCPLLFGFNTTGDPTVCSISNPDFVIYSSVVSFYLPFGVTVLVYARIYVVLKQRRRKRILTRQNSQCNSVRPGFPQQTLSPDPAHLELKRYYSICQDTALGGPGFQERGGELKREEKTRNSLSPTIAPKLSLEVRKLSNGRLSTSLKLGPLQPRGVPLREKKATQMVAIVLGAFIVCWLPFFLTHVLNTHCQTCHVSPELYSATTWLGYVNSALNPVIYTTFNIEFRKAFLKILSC

The target of test [3] is T4, serotonin transporter (SERT) (Homo sapiens, UniProt P31645).
T4 construct: expressed in transfected cells; host or cells: CHO cells
T4 sequence (P31645 whole entry): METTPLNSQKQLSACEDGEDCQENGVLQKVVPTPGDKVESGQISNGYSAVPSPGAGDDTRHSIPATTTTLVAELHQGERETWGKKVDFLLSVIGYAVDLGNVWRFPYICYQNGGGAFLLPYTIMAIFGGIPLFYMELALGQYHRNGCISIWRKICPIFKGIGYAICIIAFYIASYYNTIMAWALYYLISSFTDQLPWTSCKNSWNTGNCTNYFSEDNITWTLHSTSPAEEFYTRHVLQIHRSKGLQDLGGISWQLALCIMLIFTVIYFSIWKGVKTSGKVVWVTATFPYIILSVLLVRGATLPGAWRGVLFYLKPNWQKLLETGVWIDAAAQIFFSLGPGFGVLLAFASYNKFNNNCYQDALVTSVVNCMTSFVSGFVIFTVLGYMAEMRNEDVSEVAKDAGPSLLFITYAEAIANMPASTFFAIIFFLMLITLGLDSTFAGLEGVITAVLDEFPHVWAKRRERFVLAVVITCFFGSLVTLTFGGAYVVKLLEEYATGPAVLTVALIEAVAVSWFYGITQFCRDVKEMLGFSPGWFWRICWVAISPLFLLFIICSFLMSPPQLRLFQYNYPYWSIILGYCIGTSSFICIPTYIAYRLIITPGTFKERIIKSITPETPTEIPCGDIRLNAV
Put plainly: Radioligand binding assay, serotonin transporter (SERT). The conditions noted are these: binding assay, test compound 1×10^−6 M. The essentials: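 Radioligand competition binding with scintillation detection; specific binding is total minus binding under excess unlabelled ligand. Reported as % of control specific binding or % inhibition; IC50 from Hill-equation non-linear regression of competition curves, and Ki via Cheng-Prusoff using radioligand concentration and Scatchard-derived KD.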

The subject of test [4] is α1 adrenergic receptors (rat cerebral cortex). Put plainly: Radioligand binding assay, adrenergic α1 receptors. The note with it: test compound 1×10^−6 M. The essentials: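 Values derive from radioligand displacement, with non-specific binding defined by excess cold ligand and detection by scintillation. Hill-fit IC50s were converted to Ki via Cheng-Prusoff using Scatchard-derived Kd; percent inhibition of control specific binding also reported.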

In test [5] the target is T5, 5-HT1A receptor (rat hippocampus) (Rattus norvegicus, UniProt P19327).
T5 construct: hippocampus; from tissue; host or cells: rat hippocampus
T5 sequence (P19327 1-422): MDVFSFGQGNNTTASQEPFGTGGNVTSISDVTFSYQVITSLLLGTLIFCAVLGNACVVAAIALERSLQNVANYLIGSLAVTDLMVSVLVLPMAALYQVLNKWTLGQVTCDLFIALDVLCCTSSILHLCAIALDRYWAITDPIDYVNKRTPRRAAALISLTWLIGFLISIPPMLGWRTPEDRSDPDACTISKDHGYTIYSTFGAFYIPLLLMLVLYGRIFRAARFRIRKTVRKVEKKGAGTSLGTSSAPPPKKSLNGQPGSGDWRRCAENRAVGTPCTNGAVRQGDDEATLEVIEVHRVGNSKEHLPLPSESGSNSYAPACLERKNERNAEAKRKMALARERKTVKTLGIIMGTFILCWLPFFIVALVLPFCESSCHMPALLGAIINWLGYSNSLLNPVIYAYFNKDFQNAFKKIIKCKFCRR
Briefly: Radioligand binding assay, serotoninergic 5-HT1A receptors. The conditions noted are these: binding assay result in %, Table 5a.

T3 sequence (P34969 whole entry): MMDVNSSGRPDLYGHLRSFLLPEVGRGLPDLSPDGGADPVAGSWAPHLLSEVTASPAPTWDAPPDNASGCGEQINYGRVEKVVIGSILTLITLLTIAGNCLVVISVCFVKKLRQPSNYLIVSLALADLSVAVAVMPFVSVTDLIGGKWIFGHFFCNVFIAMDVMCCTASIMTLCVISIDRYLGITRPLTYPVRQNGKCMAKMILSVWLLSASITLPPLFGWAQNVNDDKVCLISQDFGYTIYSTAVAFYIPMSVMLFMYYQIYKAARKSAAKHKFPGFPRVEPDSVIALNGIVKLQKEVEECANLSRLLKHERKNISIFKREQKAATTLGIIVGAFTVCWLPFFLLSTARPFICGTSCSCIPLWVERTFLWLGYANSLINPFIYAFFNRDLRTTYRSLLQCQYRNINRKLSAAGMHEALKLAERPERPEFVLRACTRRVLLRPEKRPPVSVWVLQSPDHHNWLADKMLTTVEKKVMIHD
T1 sequence (P28223 whole entry): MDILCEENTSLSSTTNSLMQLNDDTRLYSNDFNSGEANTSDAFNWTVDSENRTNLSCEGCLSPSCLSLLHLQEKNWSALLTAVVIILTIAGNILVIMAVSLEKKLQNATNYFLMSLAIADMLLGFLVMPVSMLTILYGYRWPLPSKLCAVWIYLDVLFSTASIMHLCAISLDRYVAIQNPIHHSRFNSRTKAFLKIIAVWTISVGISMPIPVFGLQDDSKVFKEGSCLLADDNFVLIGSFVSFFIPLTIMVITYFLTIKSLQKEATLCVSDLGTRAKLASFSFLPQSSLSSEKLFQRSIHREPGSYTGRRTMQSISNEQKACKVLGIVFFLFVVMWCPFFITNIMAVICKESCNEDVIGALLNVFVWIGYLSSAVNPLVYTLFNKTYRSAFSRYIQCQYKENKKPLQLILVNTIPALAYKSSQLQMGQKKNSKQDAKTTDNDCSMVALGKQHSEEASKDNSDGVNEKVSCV
Sequence of dopaminergic receptors D2 (P14416 whole entry): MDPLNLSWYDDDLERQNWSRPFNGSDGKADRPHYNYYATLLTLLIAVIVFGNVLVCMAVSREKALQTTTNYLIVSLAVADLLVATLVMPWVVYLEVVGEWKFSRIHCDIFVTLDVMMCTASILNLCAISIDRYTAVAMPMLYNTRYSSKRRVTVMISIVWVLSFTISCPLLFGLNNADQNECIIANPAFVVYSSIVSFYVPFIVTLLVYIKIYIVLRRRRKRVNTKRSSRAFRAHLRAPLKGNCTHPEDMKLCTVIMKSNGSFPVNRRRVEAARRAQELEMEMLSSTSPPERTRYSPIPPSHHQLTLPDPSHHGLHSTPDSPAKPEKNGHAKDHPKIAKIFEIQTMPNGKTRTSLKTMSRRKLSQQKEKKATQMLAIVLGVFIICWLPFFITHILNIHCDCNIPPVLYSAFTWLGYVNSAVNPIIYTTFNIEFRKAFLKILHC

For the compound `O=S(=O)(NCC1CN(CCCc2c[nH]c3ccc(Cl)cc23)C1)c1ccc2ccccc2c1` [Compound 161, N-[[1-[3-(5-Chloro-1H-indol-3-yl)propyl]azetidin-3-yl]methyl]naphthalene-2-sulphonamide], the inhibition at 1 µM on 5-HT2A receptor came to 88%; in test [1], 84%; on 5-HT6 receptor, 87%; on 5-HT7 receptor, 83%; in test [2] it was 75%; in test [3] it was 66%. Besides, in test [5], the inhibition at 1 µM is 86%. Besides, the “α1 [%]” value in test [4] is reported as 46%.

As to `O=S(=O)(NCC1CCN(CCOc2cccc3c2OCCO3)C1)c1ccc(Cl)c(Cl)c1` (centres unmarked) [Compound 301, 3,4-Dichloro-N-[[1-[2-(2,3-dihydro-1,4-benzodioxin-5-yloxy)ethyl]-pyrrolidin-3-yl]methyl]benzenesulphonamide], the inhibition at 1 µM is 81% on 5-HT2A receptor; -22% in test [1]; 61% on 5-HT6 receptor; 98% on 5-HT7 receptor; 34% in test [2]; 38% in test [3]. In addition, the inhibition at 1 µM in test [5] was 96%. Further, the “α1 [%]” value in test [4] turned out to be 46%.

With `O=S(=O)(NC1CCN(CCOc2cccc3c2OCCO3)CC1)c1cccc2ccccc12` [Compound 100, N-[1-[2-(2,3-dihydro-1,4-benzodioxan-8-yloxy)ethyl]-4-piperidine]-naphthalene-1-sulphonamide], the “5-HT2A [%]” value at 5-HT2A receptor is on record as 97%. Moreover, the “D2 [%]” value in test [1] is on record as 41%. In addition, the “5-HT6 [%]” value on 5-HT6 receptor is recorded as 28%. Also, the “5-HT7 [%]” value at 5-HT7 receptor worked out at 103%. Also, in test [2], the “D3 [%]” value was 74%. In test [3], the “SERT [%]” value came to 57%. In addition, in test [4], the “α1 [%]” value is 87%. Also, in test [5], the “5-HT1A [%]” value was found to be 94%.

In the case of `O=S(=O)(NCC1CCN(CCOc2cccc3ccccc23)C1)c1csc2ccccc12` (centres unmarked) [Compound 276, N-[[1-[2-(1-Naphthyloxy)ethyl]pyrrolidin-3-yl]methyl]benzothiophene-3-sulphonamide], the inhibition at 1 µM at 5-HT2A receptor came out at 92%; in test [1] it was 41%; on 5-HT6 receptor, 84%; on 5-HT7 receptor, 82%; in test [2], 91%; in test [3] it was 84%. For the same compound, the inhibition at 1 µM in test [5] is 81%. The “α1 [%]” value in test [4] was found to be 16%.

As to `Cc1cccc(S(=O)(=O)NC2CCN(CCOc3cccc4[nH]ccc34)CC2)c1` [Compound 56, N-[1-[2-(1H-Indol-4-yloxy)ethyl]-4-piperidine]-3-methylbenzene-sulphonamide], the “5-HT2A [%]” value on 5-HT2A receptor worked out at 84%. Besides, the “D2 [%]” value in test [1] came to 34%. At 5-HT6 receptor, the “5-HT6 [%]” value turned out to be 36%. The “5-HT7 [%]” value at 5-HT7 receptor amounted to 106%. Also, the “D3 [%]” value in test [2] was determined as 98%. Besides, in test [3], the “SERT [%]” value is given as 15%. The “α1 [%]” value in test [4] was 74%. The “5-HT1A [%]” value in test [5] is given as 75%.

For `O=S(=O)(NCC1CCN(CCCc2noc3cc(F)ccc23)CC1)c1ccc2ccccc2c1` [Compound 38, N-[[1-[3-(6-Fluoro-1,2-benzoxazol-3-yl)propyl]-4-piperidine]methyl]-naphthalene-2-sulphonamide], the “5-HT2A [%]” value at 5-HT2A receptor is on record as 82%. Besides, the “D2 [%]” value in test [1] was determined as 77%. Moreover, the “5-HT6 [%]” value on 5-HT6 receptor came out at 104%. At 5-HT7 receptor, the “5-HT7 [%]” value was 94%. In addition, the “D3 [%]” value in test [2] came to 64%. In test [3], the “SERT [%]” value amounted to 17%. For the same compound, the “α1 [%]” value in test [4] was found to be 98%. In addition, the “5-HT1A [%]” value in test [5] was 25%.

In the case of `O=S(=O)(NCC1CN(CCOc2cccc3c2OCCO3)C1)c1cccc2ccccc12` [Compound 176, N-[[1-[2-(2,3-Dihydro-1,4-benzodioxin-5-yloxy)ethyl]azetidin-3-yl]methyl]-naphthalene-1-sulphonamide], the inhibition at 1 µM is 35% at 5-HT2A receptor; 21% in test [1]; 14% at 5-HT6 receptor; 87% on 5-HT7 receptor; 8% in test [2]; -2% in test [3]. Besides, in test [5], the inhibition at 1 µM amounted to 98%. The “α1 [%]” value in test [4] was 51%.

`O=S(=O)(NC1CCN(CCCc2noc3cc(F)ccc23)C1)c1ccc(Cl)s1` (centres unmarked) [Compound 22, 5-Chloro-N-[1-[3-(6-fluoro-1,2-benzoxazol-3-yl)propyl]pyrrolidin-3-yl]thiophene-2-sulphonamide]: the inhibition at 1 µM on 5-HT2A receptor was 95%; in test [1] it was 85%; on 5-HT6 receptor it was 72%; at 5-HT7 receptor, 85%; in test [2], 23%; in test [3], 5%. Also, the inhibition at 1 µM in test [5] worked out at 0%. In addition, the “α1 [%]” value in test [4] turned out to be 91%.

In the case of `O=S(=O)(NC1CCN(CCOc2cccc3c2OCCO3)C1)c1cccc2ccccc12` (centres unmarked) [Compound 98, N-[1-[2-(2,3-Dihydro-1,4-benzodioxan-8-yloxy)ethyl]pyrrolidin-3-yl]-naphthalene-1-sulphonamide], the “5-HT2A [%]” value at 5-HT2A receptor is listed as 87%. In addition, the “D2 [%]” value in test [1] worked out at 62%. Also, at 5-HT6 receptor, the “5-HT6 [%]” value is on record as 32%. Moreover, on 5-HT7 receptor, the “5-HT7 [%]” value is given as 100%. In addition, in test [2], the “D3 [%]” value is given as 67%. The “SERT [%]” value in test [3] stood at 16%. In addition, in test [4], the “α1 [%]” value was 78%. Besides, the “5-HT1A [%]” value in test [5] is listed as 92%.

Consider `O=S(=O)(NC1CCN(CCOc2cccc3[nH]ccc23)CC1)c1cccc2ccccc12` [Compound 60, N-[1-[2-(1H-Indol-4-yloxy)ethyl]-4-piperidine]naphthalene-1-sulphonamide], for which the “5-HT2A [%]” value on 5-HT2A receptor is recorded as 76%. In test [1], the “D2 [%]” value turned out to be 41%. On 5-HT6 receptor, the “5-HT6 [%]” value turned out to be 69%. Besides, the “5-HT7 [%]” value at 5-HT7 receptor came to 96%. For the same compound, the “D3 [%]” value in test [2] stood at 102%. Moreover, the “SERT [%]” value in test [3] amounted to 21%. Further, the “α1 [%]” value in test [4] worked out at 87%. The “5-HT1A [%]” value in test [5] worked out at 85%.

As for `O=S(=O)(NCC1CN(CCCc2c[nH]c3ccc(F)cc23)C1)c1ccc2ccccc2c1` [Compound 160, N-[[1-[3-(5-Fluoro-1H-indol-3-yl)propyl]azetidin-3-yl]methyl]naphthalene-2-sulphonamide], the inhibition at 1 µM on 5-HT2A receptor was determined as 97%; in test [1] it was 86%; on 5-HT6 receptor, 83%; on 5-HT7 receptor it was 75%; in test [2], 87%; in test [3] it was 100%. Besides, in test [5], the inhibition at 1 µM came out at 76%. For the same compound, the “α1 [%]” value in test [4] is recorded as 49%.

Take `O=S(=O)(NC1CCN(CCOc2nsc3ccccc23)CC1)c1ccc2ccccc2c1` [Compound 40, N-[1-[2-(1,2-Benzothiazol-3-yloxy)ethyl]-4-piperidine]naphthalene-2-sulphonamide]: the “5-HT2A [%]” value on 5-HT2A receptor came to 102%. Also, the “D2 [%]” value in test [1] was 49%. At 5-HT6 receptor, the “5-HT6 [%]” value came out at 72%. Besides, the “5-HT7 [%]” value on 5-HT7 receptor was determined as 85%. Besides, the “D3 [%]” value in test [2] was found to be 39%. In addition, in test [3], the “SERT [%]” value is −5%. For the same compound, in test [4], the “α1 [%]” value is on record as 12%. In test [5], the “5-HT1A [%]” value worked out at 68%.

For the compound `Cc1c(S(=O)(=O)NC2CCN(CCCc3noc4cc(F)ccc34)CC2)sc2ccc(Cl)cc12` [Compound 326, 5-Chloro-N-[1-[3-(6-fluoro-1,2-benzoxazol-3-yl)propyl]-4-piperidyl]-3-methyl-benzothiophene-2-sulphonamide], the inhibition at 1 µM came out at 97% on 5-HT2A receptor; 86% in test [1]; 83% at 5-HT6 receptor; 91% at 5-HT7 receptor; 61% in test [2]; 10% in test [3]. For the same compound, in test [5], the inhibition at 1 µM was -1%. For the same compound, in test [4], the “α1 [%]” value amounted to 70%.
